Assays:
[1] = pH-solubility profile and solubility in simulated intestinal media; assay type: physicochemical; settings: aqueous, neutral form (pH>5), room temperature
Experimental: Excess solid ledipasvir was added to a range of pH-adjusted aqueous solutions (titrated with HCl or NaOH) and stirred for 48 hours at room temperature. The suspensions were then filtered through regenerated cellulose syringe filters. The pH value of the supernatant was measured, and the supernatant was diluted as appropriate with 50:50 H2O+0.1% TFA:ACN and assayed for ledipasvir content by the HPLC-UV method.
Solubility of ledipasvir amorphous free base was assessed in three types of simulated intestinal fluids at pH 6.5 or pH 5.0; and simulated intestinal bile salt and lecithin mixture (SIBLM), pH 6.4. Excess solid ledipasvir was added to the respective SIFs and stirred for 48 hours at room temperature. The resulting suspensions were then filtered through regenerated cellulose syringe filters. The supernatant was diluted as appropriate with 50:50 H2O+0.1% TFA:ACN and assayed for ledipasvir content by the HPLC-UV method.

[2] = Aqueous solubility with 0.1% w/w surfactants and polymers; dissolution behavior of forms; assay type: physicochemical; settings: aqueous buffered solutions
Experimental: Excess solid was added to aqueous buffered solutions; samples were withdrawn at predetermined intervals (2, 5, 8, 10, 15, 20, 30, 45, 60 minutes, and 24 hours), filtered through regenerated cellulose filters, and diluted for concentration measurement by the HPLC-UV method.

[3] = Pharmacokinetics of sofosbuvir and ledipasvir alone or in combination; assay type: in vivo; settings: for AUC(0-inf) / AUC(0-t) / Cmax: po, plasma analyte, n = 17, mean (% CV)
[4] = Compatibility/stability of sofosbuvir and ledipasvir:copovidone solid dispersion blend; assay type: physicochemical; settings: for Strength / Total Impurity Content: blend pellets, open glass vials
Experimental: The compatibility of sofosbuvir anhydrous crystalline drug substance was evaluated with the ledipasvir:copovidone solid dispersion. A blend of the sofosbuvir and ledipasvir:copovidone (1:1) solid dispersion was prepared at a ratio representative of the final 400 mg sofosbuvir/90 mg ledipasvir tablets. […]

[5] = PK of sofosbuvir alone or with Compound E (and ledipasvir); assay type: in vivo; settings: for AUC(0-inf) / AUC(0-t) / Cmax: human, in vivo, n = 18, mean (% CV)
Experimental: Subjects (n=18) received single doses of sofosbuvir (400 mg) alone or in combination with Compound E (500 mg QD) under fed conditions.

[6] = test system: HCV; assay: Dose selection: antiviral response and Emax PK/PD modeling; assay type: in vivo, Hepatitis C virus
Experimental: The sofosbuvir dose selected for the tablet formulation is 400 mg once daily. Support for the 400 mg sofosbuvir dose can be derived from Emax PK/PD modeling with early virological and human exposure data which also supports the selection of a 400 mg sofosbuvir dose over others tested.
The mean sofosbuvir major metabolite AUCtau for the 400 mg sofosbuvir dose is associated with approximately 77% of the maximal HCV RNA change from baseline achievable as determined by this model, a value which is on the cusp of the plateau of the exposure-response sigmoidal curve. […] Therefore, given that sofosbuvir exposure with 200 mg tablets appears dose-proportional with single doses up to 1200 mg, doses below 400 mg are expected to yield considerable reductions in the magnitude of HCV RNA change from baseline.
The sofosbuvir dose of 400 mg once daily was associated with higher SVR rates in genotype 1 HCV infected patients as compared to the 200 mg once daily dose when given in conjunction with additional HCV therapeutics for 24 weeks. Safety and tolerability appeared similar across both dose levels. In addition, when sofosbuvir 400 mg once daily plus other HCV therapeutics were given to genotype 2 or 3 HCV infected patients, 100% SVR24 was observed.
The maximum median HCV RNA log 10 reduction was 3 or greater for all cohorts dosed with ≥3 mg of ledipasvir. […] Therefore, 30 mg and 90 mg of ledipasvir were selected as the dose for the formulations described herein.
Therefore, the 90 mg dose of ledipasvir may confer a greater antiviral coverage that prevents viral breakthrough.

[7] = clinical; settings: in vivo; for AUC(0-inf) / AUC(0-t) / Cmax: po, plasma analyte, Sofosbuvir/Ledipasvir Tablet, n = 29, mean (% CV); for AUC(0-inf): AUCinf; for AUC(0-t): AUClast
[8] = PK of Sofosbuvir/Ledipasvir tablets fasted or with meals
[9] = listed as Ledipasvir crystalline free base Form III
[10] = Sofosbuvir + Ledipasvir vs single agent alone
[11] = in vivo, Sofosbuvir + Ledipasvir
[12] = SOF + Compound E + ledipasvir vs SOF alone
[13] = po, 400 mg, SOF + Compound E (500 mg QD), fed
[14] = po, 400 mg, SOF alone (400 mg single dose, fed)

For COC(=O)N[C@H](C(=O)N1CC2(CC2)C[C@H]1c1ncc(-c2ccc3c(c2)C(F)(F)c2cc(-c4ccc5nc([C@@H]6[C@H]7CC[C@H](C7)N6C(=O)[C@@H](NC(=O)OC)C(C)C)[nH]c5c4)ccc2-3)[nH]1)C(C)C [Ledipasvir Form III], the “intrinsic solubility (S0)” value [1, 9] was under 0.1 µg/mL and the “dissolution behavior relative to other ledipasvir forms” value [2, 9] was “dissolves more slowly than the amorphous free base, but faster than ledipasvir-03”.

With COC(=O)N[C@H](C(=O)N1CC2(CC2)C[C@H]1c1ncc(-c2ccc3c(c2)C(F)(F)c2cc(-c4ccc5nc([C@@H]6[C@H]7CC[C@H](C7)N6C(=O)[C@@H](NC(=O)OC)C(C)C)[nH]c5c4)ccc2-3)[nH]1)C(C)C [Ledipasvir-02] the “dissolution behavior relative to other ledipasvir forms” value [2] was “improved relative to all free base forms”.

For COC(=O)N[C@H](C(=O)N1CC2(CC2)C[C@H]1c1ncc(-c2ccc3c(c2)C(F)(F)c2cc(-c4ccc5nc([C@@H]6[C@H]7CC[C@H](C7)N6C(=O)[C@@H](NC(=O)OC)C(C)C)[nH]c5c4)ccc2-3)[nH]1)C(C)C [Ledipasvir-03], the “intrinsic solubility (S0)” value [1] was under 0.1 µg/mL and the “dissolution behavior relative to other ledipasvir forms” value [2] was “slowest dissolution of all forms tested”.

For CC(C)OC(=O)[C@H](C)N[P@](=O)(OC[C@H]1O[C@@H](n2ccc(=O)[nH]c2=O)[C@](C)(F)[C@@H]1O)Oc1ccccc1 [Sofosbuvir, (S)-isopropyl 2-(((S)-(((2R,3R,4R,5R)-5-(2,4-dioxo-3,4-dihydropyrimidin-1(2H)-yl)-4-fluoro-3-hydroxy-4-methyltetrahydrofuran-2-yl)methoxy)(phenoxy)phosphoryl)amino)propanoate], the “AUC with ledipasvir as share of total drug related material (DRM) AUC” value ([3]; DRM = sum of AUCs of analytes corrected for molecular weight) was about 5.7%, the “% GMR (90% CI) of AUCinf” value [3, 10] was 229 (191, 276) % and the “% GMR (90% CI) of AUClast” value [3, 10] was 230 (191, 277) %. For the same molecule, the “% GMR (90% CI) of Cmax” value [3, 10] was 221 (176, 278) %, the “increase of plasma exposure by ledipasvir” value ([3]; in vivo) was about 2.3 fold and the AUC(0-inf) [3, 11] was 1750 ng·h/mL. It also gave an AUC(0-t) [3, 11] of 1740 ng·h/mL, a Cmax [3, 11] of 1870 ng/mL and an AUC(0-inf) ([3]; in vivo, Sofosbuvir alone) of 794 ng·h/mL. For the same molecule, the AUC(0-t) ([3]; in vivo, Sofosbuvir alone) was 788 ng·h/mL, the Cmax ([3]; in vivo, Sofosbuvir alone) was 929 ng/mL and the “degradation in blend with the other active” value ([4]; 40° C./75% RH and 60° C./ambient humidity, two and four weeks) was “no degradation was observed”. The Strength ([4]; 45° C./75% RH, 0 weeks) was 102.9%, the “Total Impurity Content” value ([4]; 45° C./75% RH, 0 weeks) was 0.4% and the Strength ([4]; 45° C./75% RH, 2 weeks) was 101.6%. The “Total Impurity Content” value ([4]; 45° C./75% RH, 2 weeks) was 0.3%, the Strength ([4]; 45° C./75% RH, 4 weeks) was 100.5% and the “Total Impurity Content” value ([4]; 45° C./75% RH, 4 weeks) was 0.2%. For the same molecule, the Strength ([4]; 60° C., 0 weeks) was 102.9%, the “Total Impurity Content” value ([4]; 60° C., 0 weeks) was 0.4% and the Strength ([4]; 60° C., 1 week) was 102.4%. For the same molecule, the “Total Impurity Content” value ([4]; 60° C., 1 week) was 0.3%, the Strength ([4]; 60° C., 2 weeks) was 103.2% and the “Total Impurity Content” value ([4]; 60° C., 2 weeks) was 0.3%. The Strength ([4]; 60° C., 4 weeks) was 102.8%, the “Total Impurity Content” value ([4]; 60° C., 4 weeks) was 0.2% and the “% GMR of AUCinf” value [5, 12] was 297%. The “% GMR of AUClast” value [5, 12] was 301%, the “% GMR of Cmax” value [5, 12] was 283% and the “% GMR of AUCinf” value ([5]; SOF + Compound E vs SOF alone) was 135%. The “% GMR of AUClast” value ([5]; SOF + Compound E vs SOF alone) was 135%, the “% GMR of Cmax” value ([5]; SOF + Compound E vs SOF alone) was 130% and the AUC(0-inf) ([5]; SOF + Compound E + ledipasvir) was 2560 ng·h/mL. It also gave an AUC(0-t) ([5]; SOF + Compound E + ledipasvir) of 2550 ng·h/mL, a Cmax ([5]; SOF + Compound E + ledipasvir) of 1260 ng/mL and an AUC(0-inf) [5, 13] of 1150 ng·h/mL. For the same molecule, the AUC(0-t) [5, 13] was 1140 ng·h/mL, the Cmax [5, 13] was 587 ng/mL and the AUC(0-inf) [5, 14] was 921 ng·h/mL. The AUC(0-t) [5, 14] was 908 ng·h/mL, the Cmax [5, 14] was 515 ng/mL and the “share of the maximal HCV RNA change from baseline achievable (Emax PK/PD model)” value ([6]; 400 mg dose, mean major metabolite AUCtau) was “approximately 77%”. It also gave an SVR24 ([6]; 400 mg once daily plus other HCV therapeutics, genotype 2 or 3 HCV infected patients) of 100%, a Tmax [7] of 1 h and an AUC(0-inf) ([7]; Fasted) of 1520 ng·h/mL. For the same molecule, the AUC(0-inf) ([7]; High-Calorie/High-Fat Meal) was 2570 ng·h/mL, the AUC(0-inf) ([7]; Moderate-Fat Meal) was 2860 ng·h/mL and the AUC(0-t) ([7]; Fasted) was 1520 ng·h/mL. It also gave an AUC(0-t) ([7]; High-Calorie/High-Fat Meal) of 2550 ng·h/mL, an AUC(0-t) ([7]; Moderate-Fat Meal) of 2850 ng·h/mL and a Cmax ([7]; Fasted) of 1240 ng/mL. For the same molecule, the Cmax ([7]; High-Calorie/High-Fat Meal) was 1350 ng/mL, the Cmax ([7]; Moderate-Fat Meal) was 1520 ng/mL and the “% GMR (90% CI) [Moderate-Fat/Fasted] of AUCinf” value ([8]; Sofosbuvir/Ledipasvir Tablet) was 195 (176, 216) %. For the same molecule, the “% GMR (90% CI) [Moderate-Fat/Fasted] of AUClast” value ([8]; Sofosbuvir/Ledipasvir Tablet) was 195 (176, 216) %, the “% GMR (90% CI) [Moderate-Fat/Fasted] of Cmax” value ([8]; Sofosbuvir/Ledipasvir Tablet) was 126 (109, 147) % and the “GMR (90% CI) [High-Fat/Fasted] of AUCinf” value ([8]; Sofosbuvir/Ledipasvir Tablet) was 179 (162, 198) %. For the same molecule, the “GMR (90% CI) [High-Fat/Fasted] of AUClast” value ([8]; Sofosbuvir/Ledipasvir Tablet) was 178 (161, 198) %, the “GMR (90% CI) [High-Fat/Fasted] of Cmax” value ([8]; Sofosbuvir/Ledipasvir Tablet) was 115 (99.0, 134) % and the “median Tmax” value ([8]; sofosbuvir/ledipasvir composition, with food) was 2.00 h.

Reference: patent publication US10039779B2, “Combination formulation of two antiviral compounds” (priority 2013, dated 2018)
